Values of other authors as cited in patent US20230049319A1, “CANNABINOID-COMPRISING COSMETIC COMPOSITIONS” (THIS WORKS PRODUCTS LIMITED, priority 2020, published 2023).

Columns and labels:
anxiety = conditions: in vivo
[1] = test system: chronic inflammation and pain; conditions: mice and rats
[2] = in vivo

Compound	reducing anxiety, compared with trazodone hydrochloride (anxiety)	other results
C=C[C@](C)(O)CCC=C(C)C [R-(−)-linalool]	as effective as the trazodone hydrochloride	–
C=C(C)[C@@H]1CCC(C)=C[C@H]1c1c(O)cc(CCCCC)cc1O [CBD, cannabidiol]	–	chronic inflammation and pain [1]: substantially reduce
C=C[C@@](C)(O)CCC=C(C)C [S-(+)-linalool]	as effective as the trazodone hydrochloride	–
C=CC(C)(O)CCC=C(C)C (stereo not shown) [Linalool]	–	dose shown to be safe [2]: ≤ 120 mg
